Reference: patent US12421249B2, “Inhibitors of APOL1 and methods of using same” (Vertex Pharmaceuticals Incorporated, priority 2020, dated 2025)
pIC50: −log10 of the molar value.

What follows are molecules tested against T1, APOL1 G1 (Homo sapiens, UniProt O14791, I384M/S342G) (assay: Trypanosoma brucei brucei Lysis Assay Using APOL1 Recombinant Protein (AlamarBlue viability readout)). Conditions: Trypanosome Assay; IP50 = IC50 for cell proliferation; read-out: Trypanosome Assay IP50.
T1 sequence (O14791 28-398 S342G/I384M): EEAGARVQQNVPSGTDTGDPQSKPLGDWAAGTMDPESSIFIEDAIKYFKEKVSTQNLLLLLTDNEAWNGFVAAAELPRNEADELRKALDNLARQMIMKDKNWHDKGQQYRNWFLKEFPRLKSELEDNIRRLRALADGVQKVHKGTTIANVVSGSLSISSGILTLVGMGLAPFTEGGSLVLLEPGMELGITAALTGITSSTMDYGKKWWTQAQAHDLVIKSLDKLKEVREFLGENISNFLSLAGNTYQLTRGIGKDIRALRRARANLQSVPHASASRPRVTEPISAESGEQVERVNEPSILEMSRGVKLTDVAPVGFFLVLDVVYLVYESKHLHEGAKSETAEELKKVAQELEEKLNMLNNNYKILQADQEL
Type: cell-based
Text: Trypanosoma brucei brucei is a blood stream parasite to which human, gorillas, and baboons are immune due to the presence of the APOL1 protein in their HDL particles. The protein is uptaken by the parasite via the TbHpHb receptor located in its flagellar pocket and is bonded by the Hpr protein contained in the HDL particles which triggers the receptor endocytosis by the parasite.
Following endocytosis, the formed vesicle containing the HDL particle matures from early to late endosome, and subsequently to lysosome. The concomitant pH change in the lumen of the vesicle triggers the insertion of the APOL1 protein into the membrane of the late endosome/lysosome and hereby triggers lysosomal membrane permeabilization and as a further downstream event, trypanosome lysis. Trypanosoma brucei brucei is sensitive to lysis by all three APOL1 variants (G0, G1, and G2).
The Trypanosoma brucei brucei lysis assay is a lysis assay of the parasite using recombinant APOL1 protein variant followed by a fluorescent detection method of viability by the addition of AlamarBlue reagent to the assay well, a general metabolic redox indicator (AlamarBlue assay).
Briefly, the AlamarBlue active compound, resazurin, a blue, water soluble, non-toxic and cell permeable molecule, which can be followed by absorbance, is reduced by various metabolic pathways into resorufin, a red compound which can be followed by either absorbance or fluorescence. The assay allows the calculation of the percent viability (percent of living Trypanosomes remaining in each well) at the end of a lysis relative to the untreated condition by interpolation of fluorescent values (FLU) on a standard curve with a known amount of seeded trypanosome/well.
Trypanosoma brucei brucei (ATCC, Cat. No. PRA-382)
• Lister 427 VSG 221 bloodstream form.
Equipment • E1-Clip Tip pipette 12 channel adjustable 2-125 μL, Cat. No. 4672070BT • ThermoFisher MultiDrop 384, Cat. No. 5840300 • Multidrop • Agilent Bravo, Cat. No. G5409A • Bravo • SpectraMax M5 Assay Ready Plates (ARPs) • ARPs comes in two formats: • […] final top concentration with a 2.5 fold dilution down. • […] final top concentration with a 3 fold dilution down. • Both have a 10 point Dose response. • 0.1% DMSO final in the Black Assay Plate. • Compounds are diluted 1000 fold in the Black Assay Plate. • Each plate is designed for 14 compounds in duplicate. • In the final Black Assay Plate: • Column 1: Media only (no APOL1) (100% viable) • Column 2-23: 0.05 μg/mL APOL1 (˜EC90) (10% viable with APOL1) • Column 24: 0.1 μg/mL APOL1 (EC100) (Approx. […] Step 2, Day 4 • Centrifuge at 800×g for 5 minutes at room temperature. • Resuspend in 1 mL media. • Make a 1:25 fold dilution (10 μL/240 μL media). • Count on a hemocytometer (after adding parasites). • Let sit for 1-2 minutes for the parasites to settle. • Count should be approximately 100 viable motile parasites/16 grid or approximately 25×10^6 parasites/flask. • Passage the parasites by adding 1×10^6 parasites/T75 flask in 20 mL media. • Passage the parasites by adding 2.33×10^6 parasites/T175 flask in 46.6 mL media. • For every T75 flask should make enough for approximately 1.5×384 well assay plates. • For every T175 flask should make enough for approximately 3.8×384 well assay plates. Step 3, Day 6 • Centrifuge at 800×g for 5 minutes. • Resuspend in 3 mL assay media (No phenol red, no FBS) per 75 starting flask. • Resuspend in 7 mL assay media (No phenol red, no FBS) per 175 flask • Make a 1:25 fold dilution. • Count by hemocytometer. • Every T75 flask set up should have approximately 75×10^6 parasites/flask (verify doubling time=8.7 hours±1 hour). • Every T175 flask set up should have approximately 175×10^6 parasites/flask (verify doubling time=8.7 hours±1 hour). • Require 46×10^6 parasites per 384 well plate (at 120,000 parasites per well). […]

First: Cc1cc([C@@H]2C[C@]3(C[C@H](C)N2)OCCc2cc(Cl)sc23)ccc1O (racemic) [Compound 108]
Second: C[C@H]1C[C@@]2(C[C@@H](c3ccnc(O)c3)N1)OCCc1cc(Cl)sc12 (racemic) [Compound 112]
The pIC50 of the first is higher: > 7.30 for the first, 6.30 to 7.30 for the second.

`C[C@H]1C[C@@]2(C[C@@H](c3cccc(C(N)=O)c3)N1)OCCc1cc(Cl)sc12` (racemic) [Compound 109] and `CC(=O)Nc1cccc([C@@H]2C[C@]3(C[C@H](C)N2)OCCc2cc(Cl)sc23)c1` (racemic) [Compound 113] fall in the same range of pIC50: 6.30 to 7.30 for the first, 6.30 to 7.30 for the second.

`COc1nccc([C@@H]2C[C@]3(C[C@H](C)N2)OCCc2cc(Cl)sc23)n1` (racemic) [Compound 110] and `Cc1nccc([C@@H]2C[C@]3(C[C@H](C)N2)OCCc2cc(Cl)sc23)n1` (racemic) [Compound 116] fall in the same range of pIC50: 6.30 to 7.30 for the first, 6.30 to 7.30 for the second.

`CCC(O)Cn1cc([C@@H]2C[C@]3(C[C@H](C)N2)OCCc2cc(Cl)sc23)nn1` (mixture of isomers) [Compound 111] and `C[C@H]1C[C@@]2(C[C@@H](c3cccc(NS(C)(=O)=O)c3)N1)OCCc1cc(Cl)sc12` (racemic) [Compound 115] fall in the same range of pIC50: 6.30 to 7.30 for the first, 6.30 to 7.30 for the second.

Same assay, conditions: Trypanosome Assay; read-out: Trypanosome Assay Max Activity (%)

Point of comparison: `Cc1nccc([C@@H]2C[C@]3(C[C@H](C)N2)OCCc2cc(Cl)sc23)n1` (racemic) [Compound 116], Emax 101%. Against it:
- Cc1cc([C@@H]2C[C@]3(C[C@H](C)N2)OCCc2cc(Cl)sc23)ccc1O (racemic) [Compound 108] — lower, 94.5%
- C[C@H]1C[C@@]2(C[C@@H](c3cccc(C(N)=O)c3)N1)OCCc1cc(Cl)sc12 (racemic) [Compound 109] — lower, 100%
- COc1nccc([C@@H]2C[C@]3(C[C@H](C)N2)OCCc2cc(Cl)sc23)n1 (racemic) [Compound 110] — higher, 115%
- CCC(O)Cn1cc([C@@H]2C[C@]3(C[C@H](C)N2)OCCc2cc(Cl)sc23)nn1 (mixture of isomers) [Compound 111] — lower, 98.5%
- C[C@H]1C[C@@]2(C[C@@H](c3ccnc(O)c3)N1)OCCc1cc(Cl)sc12 (racemic) [Compound 112] — higher, 112%
- CC(=O)Nc1cccc([C@@H]2C[C@]3(C[C@H](C)N2)OCCc2cc(Cl)sc23)c1 (racemic) [Compound 113] — lower, 97%
- C[C@H]1C[C@@]2(C[C@@H](c3cccc(NS(C)(=O)=O)c3)N1)OCCc1cc(Cl)sc12 (racemic) [Compound 115] — lower, 100%

These molecules were tested against T2, APOL1 (Homo sapiens, UniProt O14791) (assay: Multi-Tox Assay (MultiTox-Fluor Multiplex Cytotoxicity Assay in tet-inducible APOL1 T-REx-HEK293 cells; Table 46 does not say which APOL1 variant G0/G1/G2)). Conditions: APOL1 variant not given.
T2 sequence (O14791 1-398 S342G/I384M): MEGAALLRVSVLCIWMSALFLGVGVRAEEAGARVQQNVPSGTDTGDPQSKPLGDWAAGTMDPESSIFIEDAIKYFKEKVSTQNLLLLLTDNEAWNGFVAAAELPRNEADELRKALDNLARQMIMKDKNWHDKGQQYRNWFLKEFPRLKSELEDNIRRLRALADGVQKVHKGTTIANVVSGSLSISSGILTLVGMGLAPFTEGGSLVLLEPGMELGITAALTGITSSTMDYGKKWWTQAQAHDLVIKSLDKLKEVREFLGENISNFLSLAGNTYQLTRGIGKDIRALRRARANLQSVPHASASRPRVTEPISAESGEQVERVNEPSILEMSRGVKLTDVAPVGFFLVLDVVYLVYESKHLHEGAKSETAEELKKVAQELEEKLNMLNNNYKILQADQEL
Type: cell-based

Point of comparison: `CC(=O)Nc1cccc([C@@H]2C[C@]3(C[C@H](C)N2)OCCc2cc(Cl)sc23)c1` (racemic) [Compound 113], “Multi-Tox Assay Max Activity (%)” value 100.0%. Against it:
- Cc1cc([C@@H]2C[C@]3(C[C@H](C)N2)OCCc2cc(Cl)sc23)ccc1O (racemic) [Compound 108] — lower, 99.0%
- C[C@H]1C[C@@]2(C[C@@H](c3cccc(C(N)=O)c3)N1)OCCc1cc(Cl)sc12 (racemic) [Compound 109] — the same, 100.0%
- CCC(O)Cn1cc([C@@H]2C[C@]3(C[C@H](C)N2)OCCc2cc(Cl)sc23)nn1 (mixture of isomers) [Compound 111] — lower, 99.3%
- C[C@H]1C[C@@]2(C[C@@H](c3ccnc(O)c3)N1)OCCc1cc(Cl)sc12 (racemic) [Compound 112] — the same, 100.0%
- C[C@H]1C[C@@]2(C[C@@H](c3cccc(NS(C)(=O)=O)c3)N1)OCCc1cc(Cl)sc12 (racemic) [Compound 115] — lower, 99.3%

Same assay, conditions: IP50 = IC50 for cell proliferation, APOL1 variant not given

`Cc1cc([C@@H]2C[C@]3(C[C@H](C)N2)OCCc2cc(Cl)sc23)ccc1O` (racemic) [Compound 108] and `C[C@H]1C[C@@]2(C[C@@H](c3ccnc(O)c3)N1)OCCc1cc(Cl)sc12` (racemic) [Compound 112] cannot be ordered by pIC50: > 7.30 for the first, > 7.30 for the second.

`C[C@H]1C[C@@]2(C[C@@H](c3cccc(C(N)=O)c3)N1)OCCc1cc(Cl)sc12` (racemic) [Compound 109] and `CC(=O)Nc1cccc([C@@H]2C[C@]3(C[C@H](C)N2)OCCc2cc(Cl)sc23)c1` (racemic) [Compound 113] cannot be ordered by pIC50: > 7.30 for the first, > 7.30 for the second.

`COc1nccc([C@@H]2C[C@]3(C[C@H](C)N2)OCCc2cc(Cl)sc23)n1` (racemic) [Compound 110] and `Cc1nccc([C@@H]2C[C@]3(C[C@H](C)N2)OCCc2cc(Cl)sc23)n1` (racemic) [Compound 116] cannot be ordered by pIC50: > 7.30 for the first, > 7.30 for the second.

`CCC(O)Cn1cc([C@@H]2C[C@]3(C[C@H](C)N2)OCCc2cc(Cl)sc23)nn1` (mixture of isomers) [Compound 111] and `C[C@H]1C[C@@]2(C[C@@H](c3cccc(NS(C)(=O)=O)c3)N1)OCCc1cc(Cl)sc12` (racemic) [Compound 115] cannot be ordered by pIC50: > 7.30 for the first, > 7.30 for the second.
